Reference: patent CN108864033A, “苯基取代的酰肼衍生物及其用途” (Guangdong HEC Pharmaceutical Co Ltd, priority 2017, dated 2018)

Tested on: glutamate-induced oxidative stress injury of HT22 cells (谷氨酸诱导的HT22细胞氧化应激损伤)
Test: Protection of HT22 cells against glutamate-induced oxidative stress injury (LDH release, cell viability)
Format: cell-based
Conditions: HT-22, HT22 mouse hippocampal neuronal cells, 15 mM glutamate, 24 h, 10 concentrations, 0.25% DMSO

Compound | EC50
Cc1ccc(N(/N=C/c2ccc3c(c2)OCO3)C(=O)C(F)(F)F)c(C)c1 [实施例1, (E)-N'-(苯并-1,3-二恶环戊烷-5-亚甲基)-N-(2,4-二甲苯基)-2,2,2-三氟乙酰肼] | 130 nM
Cc1ccc(N(/N=C/c2ccc(Cl)cc2Cl)C(=O)C(F)(F)F)c(C)c1 [实施例2, (E)-N'-(2,4-二氯苯亚甲基)-N-(2,4-二甲苯基)-2,2,2-三氟乙酰肼] | 130 nM
CC(=O)N(/N=C/c1ccc2c(c1)OCO2)c1ccc(C)cc1C [实施例3, (E)-N'-(苯并-1,3-二恶环戊烷-5-亚甲基)-N-(2,4-二甲苯基)乙酰肼] | 4120 nM
